Data: patent US7632811B2, “Analogs of parathyroid hormone” (Societe de Conseils de Recherches et D'Applications …, priority 1995, dated 2009)
Non-standard residues stand in square brackets, D forms with d. Residues, ends and D or L forms follow the SMILES beside them. Cha = N[C@@H](CC1CCCCC1)C(=O)O; Ac6c = NC1(C(=O)O)CCCCC1; Nle = CCCC[C@H](N)C(=O)O; Aib = CC(C)(N)C(=O)O

Molecular target: T1, PTH receptor present on SaOS-2 (human osteosarcoma cells) (Homo sapiens, UniProt Q03431)
T1 construct: host or cells: SaOS-2 human osteosarcoma cells (intact, confluent monolayers)
T1 sequence (Q03431 27-593): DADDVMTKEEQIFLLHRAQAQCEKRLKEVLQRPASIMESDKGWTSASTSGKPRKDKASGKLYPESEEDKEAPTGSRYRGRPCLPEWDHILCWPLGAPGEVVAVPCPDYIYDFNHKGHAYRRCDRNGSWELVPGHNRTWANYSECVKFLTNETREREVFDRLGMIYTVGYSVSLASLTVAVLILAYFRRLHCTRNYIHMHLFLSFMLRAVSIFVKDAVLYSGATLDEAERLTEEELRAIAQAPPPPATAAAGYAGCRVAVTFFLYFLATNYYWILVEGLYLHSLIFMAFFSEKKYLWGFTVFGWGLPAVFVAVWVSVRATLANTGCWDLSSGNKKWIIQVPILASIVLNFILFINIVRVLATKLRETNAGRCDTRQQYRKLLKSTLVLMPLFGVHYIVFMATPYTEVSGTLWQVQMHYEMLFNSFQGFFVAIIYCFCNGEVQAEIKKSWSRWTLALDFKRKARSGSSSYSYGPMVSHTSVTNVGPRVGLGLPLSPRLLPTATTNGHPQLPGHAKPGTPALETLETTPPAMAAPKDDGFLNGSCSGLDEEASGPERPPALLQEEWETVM
Assay: Binding to PTH receptor on SaOS-2 cells (competition with mono-125I-[Nle8,18,Tyr34(3-125I)]bPTH(1-34)NH2)
Settings: Table I, 2 hrs at room temperature, read-out: Kd (half maximal inhibition of binding of mono-125I-[Nle8,18, Tyr34(3-125I)]bPTH(1-34)NH2)
Protocol: A. Binding to PTH Receptor
The peptides of the invention were tested for their ability to bind to the PTH receptor present on SaOS-2 (human osteosarcoma cells). SaOS-2 cells (American Type Culture Collection, Rockville, Md.; ATCC #HTB 85) were maintained in RPMI 1640 medium (Sigma, St. Louis, Mo.) supplemented with 10% fetal bovine serum (FBS) and 2 mM glutamine at 37EC in a humidified atmosphere of 5% CO2 in air. The medium was changed every three or four days, and the cells were subcultured every week by trypsinization.
SaOS-2 cells were maintained for four days until they had reached confluence. The medium was replaced with 5% FBS in RPMI 1640 medium and incubated for 2 hrs at room temperature with 10×10^4 cpm mono-^125I-[Nle^8,18, Tyr^34(3-^125I)]bPTH(1-34)NH2 in the presence of a competing peptides of the invention at various concentrations between 10^−11 M to 10^−4 M. The cells were washed four times with ice-cold PBS and lysed with 0.1 M NaOH, and the radioactivity associated with the cells was counted in a scintillation counter. Synthesis of mono-^125I-[Nle^8,18, Tyr^34(3-^125I)]bPTH(1-34)NH2 was carried out as described in Goldman, M. E., et al., Endocrinol., 123:1468 (1988).
The binding assay was conducted with various peptides of the invention, and the Kd value (half maximal inhibition of binding of mono-^125I-[Nle^8,18, Tyr^34(3-^125I)]bPTH(1-34)NH2) for each peptide was calculated.

| Kd [µM] | SMILES |
| --- | --- |
| 1 | CC[C@H](C)[C@H](NC(=O)[C@H](CCC(=O)O)NC(=O)[C@H](CO)NC(=O)[C@@H](NC(=O)[C@@H](N)CO)C(C)C)C(=O)N[C@@H](CCC(N)=O)C(=O)N[C@@H](CC(C)C)C(=O)N[C@@H](CCSC)C(=O)N[C@@H](Cc1c[nH]cn1)C(=O)N[C@@H](CC(N)=O)C(=O)N[C@@H](CC(C)C)C(=O)NCC(=O)N[C@@H](CCCCN)C(=O)N[C@@H](Cc1c[nH]cn1)C(=O)N[C@@H](CC(C)C)C(=O)N[C@@H](CC(N)=O)C(=O)N[C@@H](CO)C(=O)N[C@@H](CCSC)C(=O)N[C@@H](CCC(=O)O)C(=O)N[C@@H](CCCNC(=N)N)C(=O)N[C@H](C(=O)N[C@@H](CCC(=O)O)C(=O)N[C@@H](Cc1c[nH]c2ccccc12)C(=O)N[C@@H](CC1CCCCC1)C(=O)N[C@@H](CCCNC(=N)N)C(=O)N[C@@H](CCCCN)C(=O)N[C@@H](CCCCN)C(=O)N[C@@H](CC1CCCCC1)C(=O)N[C@@H](CCC(N)=O)C(=O)N[C@@H](CC(=O)O)C(=O)N[C@@H](CC1CCCCC1)C(=O)N[C@@H](Cc1c[nH]cn1)C(=O)N[C@@H](CC(N)=O)C(=O)N[C@@H](Cc1ccccc1)C(N)=O)C(C)C [[Cha^24,28,31]hPTH(1-34)NH2] (H-SVSEIQLMHNLGKHLNSMERVEW[Cha]RKK[Cha]QD[Cha]HNF-NH2) |
| 0.05 | CCCC[C@H](NC(=O)[C@H](CO)NC(=O)[C@H](CC(N)=O)NC(=O)[C@H](CC(C)C)NC(=O)[C@H](Cc1c[nH]cn1)NC(=O)[C@H](CCCCN)NC(=O)CNC(=O)[C@H](CC(C)C)NC(=O)[C@H](CC(N)=O)NC(=O)[C@H](Cc1c[nH]cn1)NC(=O)[C@H](CCCC)NC(=O)[C@H](CC(C)C)NC(=O)[C@H](CCC(N)=O)NC(=O)[C@@H](NC(=O)[C@H](CCC(=O)O)NC(=O)[C@H](CO)NC(=O)[C@@H](NC(=O)[C@@H](N)CO)C(C)C)[C@@H](C)CC)C(=O)N[C@@H](CCC(=O)O)C(=O)N[C@@H](CCCNC(=N)N)C(=O)N[C@H](C(=O)N[C@@H](CCC(=O)O)C(=O)N[C@@H](Cc1c[nH]c2ccccc12)C(=O)N[C@@H](CC(C)C)C(=O)N[C@@H](CCCNC(=N)N)C(=O)N[C@@H](CCCCN)C(=O)N[C@@H](CC1CCCCC1)C(=O)N[C@@H](CC(C)C)C(=O)N[C@@H](CCC(N)=O)C(=O)N[C@@H](CC(=O)O)C(=O)N[C@H](C(=O)N[C@@H](Cc1c[nH]cn1)C(=O)N[C@@H](CC(N)=O)C(=O)N[C@@H](Cc1ccccc1)C(N)=O)C(C)C)C(C)C [[Nle^8,18, Cha^27]hPTH(1-34)NH2] (H-SVSEIQL[Nle]HNLGKHLNS[Nle]ERVEWLRK[Cha]LQDVHNF-NH2) |
| 0.005 | CC[C@H](C)[C@H](NC(=O)[C@H](CCC(=O)O)NC(=O)[C@H](CO)NC(=O)[C@@H](NC(=O)[C@@H](N)CO)C(C)C)C(=O)N[C@@H](CCC(N)=O)C(=O)N[C@@H](CC(C)C)C(=O)N[C@@H](CCSC)C(=O)N[C@@H](Cc1c[nH]cn1)C(=O)N[C@@H](CC(N)=O)C(=O)N[C@@H](CC(C)C)C(=O)NC(C)(C)C(=O)N[C@@H](CCCCN)C(=O)N[C@@H](Cc1c[nH]cn1)C(=O)N[C@@H](CC(C)C)C(=O)N[C@@H](CC(N)=O)C(=O)N[C@@H](CO)C(=O)N[C@@H](CCSC)C(=O)N[C@@H](CCC(=O)O)C(=O)N[C@@H](CCCNC(=N)N)C(=O)N[C@H](C(=O)N[C@@H](CCC(=O)O)C(=O)N[C@@H](Cc1c[nH]c2ccccc12)C(=O)N[C@@H](CC(C)C)C(=O)N[C@@H](CCCNC(=N)N)C(=O)N[C@@H](CCCCN)C(=O)N[C@@H](CCCCN)C(=O)N[C@@H](CC(C)C)C(=O)N[C@@H](CCC(N)=O)C(=O)N[C@@H](CC(=O)O)C(=O)N[C@H](C(=O)N[C@@H](Cc1c[nH]cn1)C(=O)N[C@@H](CC(N)=O)C(=O)N[C@@H](Cc1ccccc1)C(N)=O)C(C)C)C(C)C [[Aib^12]hPTH(1-34)NH2] (H-SVSEIQLMHNL[Aib]KHLNSMERVEWLRKKLQDVHNF-NH2) |
| 0.005 | CC[C@H](C)[C@H](NC(=O)[C@H](CCC(=O)O)NC(=O)[C@H](CO)NC(=O)[C@@H](NC(=O)[C@@H](N)CO)C(C)C)C(=O)N[C@@H](CCC(N)=O)C(=O)N[C@@H](CC(C)C)C(=O)N[C@@H](CCSC)C(=O)N[C@@H](Cc1c[nH]cn1)C(=O)N[C@@H](CC(N)=O)C(=O)N[C@@H](CC1CCCCC1)C(=O)NCC(=O)N[C@@H](CCCCN)C(=O)N[C@@H](Cc1c[nH]cn1)C(=O)N[C@@H](CC(C)C)C(=O)N[C@@H](CC(N)=O)C(=O)N[C@@H](CO)C(=O)N[C@@H](CCSC)C(=O)N[C@@H](CCC(=O)O)C(=O)N[C@@H](CCCNC(=N)N)C(=O)N[C@H](C(=O)N[C@@H](CCC(=O)O)C(=O)N[C@@H](Cc1c[nH]c2ccccc12)C(=O)N[C@@H](CC(C)C)C(=O)N[C@@H](CCCNC(=N)N)C(=O)N[C@@H](CCCCN)C(=O)N[C@@H](CCCCN)C(=O)N[C@@H](CC(C)C)C(=O)N[C@@H](CCC(N)=O)C(=O)N[C@@H](CC(=O)O)C(=O)N[C@H](C(=O)N[C@@H](Cc1c[nH]cn1)C(=O)N[C@@H](CC(N)=O)C(=O)N[C@@H](Cc1ccccc1)C(N)=O)C(C)C)C(C)C [[Cha^11]hPTH(1-34)NH2] (H-SVSEIQLMHN[Cha]GKHLNSMERVEWLRKKLQDVHNF-NH2) |
| 0.2 | CC[C@H](C)[C@H](NC(=O)[C@H](CCC(=O)O)NC(=O)[C@H](CO)NC(=O)[C@@H](NC(=O)[C@@H](N)CO)C(C)C)C(=O)N[C@@H](CCC(N)=O)C(=O)N[C@@H](CC(C)C)C(=O)N[C@@H](CCSC)C(=O)N[C@@H](Cc1c[nH]cn1)C(=O)N[C@@H](CC(N)=O)C(=O)N[C@@H](CC(C)C)C(=O)NCC(=O)N[C@@H](CCCCN)C(=O)N[C@@H](Cc1c[nH]cn1)C(=O)N[C@@H](CC(C)C)C(=O)N[C@@H](CC(N)=O)C(=O)N[C@@H](CO)C(=O)N[C@@H](CCSC)C(=O)N[C@@H](CCC(=O)O)C(=O)N[C@@H](CCCNC(=N)N)C(=O)N[C@H](C(=O)N[C@@H](CCC(=O)O)C(=O)N[C@@H](CC1CCCCC1)C(=O)N[C@@H](CC(C)C)C(=O)N[C@@H](CCCNC(=N)N)C(=O)N[C@@H](CCCCN)C(=O)N[C@@H](CCCCN)C(=O)N[C@@H](CC(C)C)C(=O)N[C@@H](CCC(N)=O)C(=O)N[C@@H](CC(=O)O)C(=O)N[C@H](C(=O)N[C@@H](Cc1c[nH]cn1)C(=O)N[C@@H](CC(N)=O)C(=O)N[C@@H](Cc1ccccc1)C(N)=O)C(C)C)C(C)C [[Cha^23]hPTH(1-34)NH2] (H-SVSEIQLMHNLGKHLNSMERVE[Cha]LRKKLQDVHNF-NH2) |

Same assay, conditions: Table II, 2 hrs at room temperature, read-out: Kd (half maximal inhibition of binding of mono-125I-[Nle8,18, Tyr34(3-125I)]bPTH(1-34)NH2)

| Kd [µM] | SMILES |
| --- | --- |
| 0.2 | CC[C@H](C)[C@H](NC(=O)[C@H](CO)NC(=O)[C@H](CCCCN)NC(=O)CNC(=O)[C@H](CCCCN)NC(=O)[C@H](CC(=O)O)NC(=O)[C@H](Cc1c[nH]cn1)NC(=O)[C@H](CC(C)C)NC(=O)[C@H](CC(C)C)NC(=O)[C@H](CCC(N)=O)NC(=O)[C@H](Cc1c[nH]cn1)NC(=O)[C@H](CCC(=O)O)NC(=O)[C@H](CO)NC(=O)[C@@H](NC(=O)[C@H](C)N)C(C)C)C(=O)N[C@@H](CCC(N)=O)C(=O)N[C@@H](CC(=O)O)C(=O)N[C@@H](CC(C)C)C(=O)N[C@@H](CCCNC(=N)N)C(=O)N[C@@H](CCCNC(=N)N)C(=O)N[C@@H](CCCNC(=N)N)C(=O)N[C@@H](CCC(=O)O)C(=O)N[C@@H](CC(C)C)C(=O)N[C@@H](CC(C)C)C(=O)N[C@@H](CCC(=O)O)C(=O)N[C@@H](CCCCN)C(=O)N[C@@H](CC(C)C)C(=O)N[C@@H](CC(C)C)C(=O)NC(C)(C)C(=O)N[C@@H](CCCCN)C(=O)NC1(C(=O)N[C@@H](Cc2c[nH]cn2)C(=O)N[C@H](C(=O)N[C@@H](C)C(N)=O)[C@@H](C)O)CCCCC1 [[Glu^22,25, Leu^23,28, Lys^26,30, Aib^29, Ahc^31]hPTHrP(1-34)NH2] (H-AVSEHQLLHDKGKSIQDLRRRELLEKLL[Aib]K[Ac6c]HTA-NH2) |
